# Literature values in patent US20030157171A1 (priority 2003, published 2003).
Structure (SMILES),water solubility (in words),water solubility at pH values below 7.0 (pH below 7.0)
COc1ccc2c(c1)c(CC(=O)O)c(C)n2C(=O)c1ccc(Cl)cc1 [Indomethacin],poorly water soluble,
C[C@H](CCC(=O)O)[C@H]1CC[C@H]2[C@@H]3[C@@H](O)C[C@@H]4C[C@H](O)CC[C@]4(C)[C@H]3CC[C@]12C [Ursodeoxycholic Acid],,low
